# From patent US11850313B2, “Method and compositions for protecting tissue” (The London Health Sciences Centre Research Inc., priority 2019, dated 2023)
# Assays:
# [1] = tested on: DCD porcine kidneys; assay: Ex vivo subnormothermic perfusion of DCD porcine kidneys with Hemopure® at 21° C. followed by blood-free reperfusion at 37° C.; set-up: species or system Pigs; details: for tissue oxygenation during preservation: 21° C., vs SCS (FIG. 4A); for urine output during preservation: 4 h perfusion at 21° C., vs Hemopure® alone (FIG. 3A)
# From the text: Pigs weighing 55-65 kg were used for this study. The animals were maintained in accordance with the Committee on the Care and Use of Laboratory Animals appointed by the National Research Council. The animals were housed at the animal facility in the West Valley Building, which is managed by the Animal Care and Veterinary Services Department at The University of Western Ontario. The experimental protocol and housing conditions followed the guidelines of the university's Animal Care Committee and the Canadian Council on Animal Care.
# (§1) Pigs were tranquilized prior to transport to the Canadian Surgical Technologies & Advanced Robotics facility (CSTAR, University Hospital, London, Canada). Upon arrival at CSTAR, the animals were prepared for surgery as per SOP. A midline incision was used to expose the kidneys. The right and left kidneys with their ureters were dissected free from the retro peritoneum while leaving the blood supply to the ureter intact and then the ureter was divided. The renal vascular pedicles were left as long as possible by freeing the renal artery and vein up to the aorta and vena cava. The pedicles were clamped for 30 minutes to induce warm ischemia in the donor organs following intravenous infusion of 10000 units of heparin. The injury inflicted is likely greater than that of conventional DCD kidneys after withdrawal of life support as the blood supply is cutoff completely by clamping, which is more harmful than the gradual ischemic injury that occurs during cardiac death. Subsequently, nephrectomies of the left and right kidney were performed and the donor animal was euthanized. All the surgeries were performed by transplant fellows at University Hospital, London, Ontario, Canada.
# The kidneys were randomly assigned to one of five preservation treatments. The first group of kidneys were flushed with and stored in HTK solution on ice for 4 h (SCS), which reflects the current clinical standard of care for organ preservation. The second group of kidneys were flushed with HTK solution and treated to 4 h of subnormothermic perfusion at 21° C. with Hemopure®. The third group of kidneys were flushed with HTK solution supplemented with 200 nM AP39 and treated to 4 h of subnormothermic perfusion at 21° C. with Hemopure® supplemented with 200 nM AP39. The fourth group of kidneys were flushed with HTK solution supplemented with 1 μM AP39 and treated to 4 h of subnormothermic perfusion at 21° C. with Hemopure® supplemented with 1 μM AP39. The fifth group of kidneys were flushed with HTK solution supplemented with 150 μM STS and treated to 4 h of subnormothermic perfusion at 21° C. with Hemopure® supplemented with 150 μM STS. After the 4 h preservation period, all kidneys were perfused with Hemopure® for 4 h at 37° C. with nutrients to simulate reperfusion after renal transplantation. The kidneys were perfused using an ex vivo perfusion apparatus (FIG. 4). The perfusion pressure was maintained at 50 mmHg. Hemopure® samples were analyzed hourly. The perfusate was oxygenated using an external mixed air supply (35% O2, 2 L/min). After reperfusion with stressed blood, kidneys were bivalved sagittally. One half was stored at −80° C. for mechanistic analyses and the other half was stored in formalin for histopathological analyses.
# Hemopure® and urine samples were collected hourly during the 4 h preservation perfusion and during the 4 h reperfusion to evaluate graft function over time. Electrolyte levels, lactate levels and gas levels in the perfusate were measured hourly using the iSTAT point-of-care testing system. Hourly urine output was recorded, and total urine samples were also collected from both perfusion periods. Pictures of the kidney, urine bags and flow and pressure readings were taken hourly. Tissue oxygenation was also measured hourly. During both perfusion periods, we closely monitored pump parameters (flow and pressure) to ensure optimal graft function. […]
# [2] = tested on: DCD porcine kidneys; assay: Ex vivo perfusion of DCD porcine kidneys with autologous blood (SMP/NMP), then reperfusion with stressed blood at 37° C.; set-up: species or system Pigs
# Procedure: as §1, with “3000” for “10000”, “All the surgeries were performed by transplant fellows at University Hospital, London, Ontario, Canada.” left out
# The kidneys were randomly assigned to one of four preservation treatments. […] Blood, urine and tissue samples were collected and analyzed as described in the next subsection.
# Blood and urine samples were collected hourly during the 4 h preservation perfusion with non-stressed blood and during the 4 h reperfusion with stressed blood to evaluate graft function over time. Hourly urine output was recorded, and total urine samples were also collected from both perfusion periods. Pictures of the kidney, urine bags and blood flow and pressure readings were taken hourly. […] During the perfusion periods, we closely monitored pump parameters (flow and pressure) to ensure optimal graft function. […] The total TUNEL+ area (%) was quantified for 10 random fields of view for 2 kidney samples per treatment group using ImageJ software v 1.50 (National Institutes of Health, USA). The total tubular area and TUNEL+ tubular area, used to calculate the TUNEL+ area (%), were determined by adjusting the brightness and saturation thresholds. […]
# [3] = tested on: donor kidneys; assay: Static cold storage (4° C.) of donor kidneys in UW solution supplemented with AP39; details: AP39 added to UW / cold preservation solution, applicant's earlier work
# [4] = tested on: oxidatively stressed endothelial cells; details: including protection against oxidative mitochondrial DNA damage; cited from earlier work
# [5] = tested on: kidney; details: AP39 supplementation of UW solution, 21° C.; cited from earlier work
# [6] = 500 ppm; cited from earlier work
structure (smiles),measurement,setting,value
O=C(CCCCCCCCC[P+](c1ccccc1)(c1ccccc1)c1ccccc1)Oc1ccc(-c2cc(=S)ss2)cc1.[Br-] [AP39],tissue oxygenation during preservation,[1]; 200 nM AP39 in Hemopure®,higher tissue oxygenation than SCS
same,urine output during preservation,[1]; 200 nM AP39 in Hemopure®,significantly higher
same,apoptotic tissue injury (TUNEL score),"[1]; 200 nM AP39 in Hemopure®, after reperfusion, vs Hemopure® and Hemopure®+1 μM AP39 (FIGS. 6A-6F)",reduced apoptotic tissue injury
same,urine output during preservation,[1]; 1 μM AP39 in Hemopure®,significantly higher
same,urine output during reperfusion,"[1]; preserved with 200 nM AP39 in Hemopure® at 21° C., 4 h reperfusion at 37° C., vs Hemopure® kidneys (FIG. 3B)",significantly higher
same,urine output during 4 h of preservation,"[2]; 200 nM AP39 in non-stressed blood at 21° C. (SMP-AP39-21C), vs SMP-21C and NMP-37C (FIG. 9A)",significantly higher
same,graft function,"[2]; AP39-supplemented blood at 21° C., vs cold storage in UW and perfusion with only blood at 21° C. and 37° C.",improves graft function
same,urine output during 4 h of reperfusion with stressed blood,"[2]; preserved with SMP-AP39-21C, vs SCS-4C, SMP-21C, NMP-37C (FIG. 9B)",significantly higher
same,graft outcomes,[3],improves renal graft outcomes
same,protective effect under oxidative stress conditions,[4],cryoprotective effect
same,kidney preservation,[5],improves kidney preservation
"O.O.O.O.O.O=S([O-])([O-])=S.[Na+].[Na+] [STS, sodium thiosulfate (STS) pentahydrate]",tissue oxygenation during preservation,[1]; 150 μM STS in Hemopure®,higher tissue oxygenation than SCS
same,urine output during preservation,[1]; 150 μM STS in Hemopure®,significantly higher
"S [H2S, Hydrogen sulfide]",effect of exposure to extreme levels,[6],sudden collapse and unconsciousness
